Measured values as given in patent US20240269298A1, “PHOSPHONYL DERIVATIVE, AND COMPOSITION AND PHARMACEUTICAL APPLICATION THEREOF” (XIZANG HAISCO PHARMACEUTICAL CO., LTD., priority 2021, published 2024).
Read-outs that look alike come from different tables or passages of the source.

How the values were obtained:
A431 (EGFR-WT) cells = assay: Inhibitory activity on proliferation of A431 (EGFR-WT) cells (CTG, 72 h); format: cell-based; conditions: Homo sapiens, A-431
Method: NCI-H1975 (EGFR-L858R-T790M) and A431 (EGFR-WT) cells were purchased from ATCC and cultured in an incubator at 37° C. with 5% CO2, and the culture mediums were RPMI1640+10% FBS and DMEM+10% FBS, respectively. On the first day, NCI-H1975 (EGFR-L858R-T790M) and A431 (EGFR-WT) cells in the logarithmic phase were collected, and viable cells were counted using an automatic cell analyzer (countstar). The cell suspensions were adjusted with the culture mediums and plated on a 96-well cell culture plate at 1000 cells/well for NCI-H1975 (EGFR-L858R-T790M) cells and at 3000 cells/well for A431 cells. The next day, the culture mediums were aspirated, and 90 μL of fresh culture mediums and 10 μL of the compounds at different concentrations were added to each well, wherein the final concentration of DMSO in each well was 0.1%. The plate was cultured in the incubator at 37° C. with 5% CO2 for 72 hours. After 72 hours of drug treatment, 50 μL of CTG solution (promega, G7572), which was already pre-melted and equilibrated to room temperature, was added to each well, and the mixtures were uniformly mixed for 2 min using a microplate shaker. The plate was placed at room temperature for 10 min, and then […] signal values were measured using a microplate reader (PHERAstar FSX).
Surviving cells % was calculated based on Vsample/Vvehicle control×100%, wherein Vsample was the readout of the drug-treated group, and Vvehicle control was the average value of the vehicle control group. Using the origin 9.2 software and nonlinear regression model, S-shaped dose-survival curves were plotted, and IC50 values were calculated.

[1] = system: NCI-H1975 (EGFR-L858R-T790M) cells; assay: Inhibitory activity on proliferation of NCI-H1975 (EGFR-L858R-T790M) cells (CTG, 72 h); format: cell-based; conditions: Homo sapiens
Outline: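 IC50 values come from S-shaped dose-survival fits of CTG signal expressed as % of vehicle. Compound exposure lasted 72 h at 37 °C with 0.1% DMSO; seeding was 3000 A431 cells/well in DMEM+10% FBS and 1000 NCI-H1975 cells/well in RPMI1640+10% FBS.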

[2] = read-out: IC50 (value in brackets)

With `COc1cc(N2CCC3(CCN(c4ccc5c(c4)C(=O)N(C4CCC(=O)NC4=O)C5=O)CC3)CC2)c(-c2cnn(C)c2)cc1Nc1ncc(Br)c(Nc2ccc(C3CC3)cc2P(C)(C)=O)n1` (stereo not drawn) [Compound 165, 5-(9-(4-((5-bromo-4-((4-cyclopropyl-2-(dimethylphosphoryl)phenyl)amino)pyrimidin-2-yl)amino)-5-methoxy-2-(1-methyl-1H-pyrazol-4-yl)phenyl)-3,9-diazaspiro[5.5]undecan-3-yl)-2-(2,6-dioxopiperidin-3-yl)isoindoline-1,3-dione] the IC50 (A431 (EGFR-WT) cells) was ≥ 10000 nM.
With `COc1cc(N2CCC(CN3CCN(c4ccc(NC5CCC(=O)NC5=O)cc4F)CC3)CC2)c(-c2cnn(C)c2)cc1Nc1ncc(Cl)c(Nc2ccc(F)cc2P(C)(C)=O)n1` (stereo not drawn) [Compound 159, 3-((4-(4-((1-(4-((5-chloro-4-((2-(dimethylphosphoryl)-4-fluorophenyl)amino)pyrimidin-2-yl)amino)-5-methoxy-2-(1-methyl-1H-pyrazol-4-yl)phenyl)piperidin-4-yl)methyl)piperazin-1-yl)-3-fluorophenyl)amino)piperidine-2,6-dione] the IC50 ([1]; read-out: IC50 (class symbol)) was < 100 nM and the IC50 [1, 2] was 21 nM.
For `COc1cc(N2CCN(C[C@H]3CCN(c4ccc5c(c4)C(=O)N(C4CCC(=O)NC4=O)C5=O)C3)CC2)c(-c2cnn(C)c2)cc1Nc1ncc(Cl)c(Nc2ccccc2P(C)(C)=O)n1` (stereo partly drawn) [Compound 120, 5-((R)-3-((4-(4-((5-chloro-4-((2-(dimethylphosphoryl)phenyl)amino)pyrimidin-2-yl)amino)-5-methoxy-2-(1-methyl-1H-pyrazol-4-yl)phenyl)piperazin-1-yl)methyl)pyrrolidin-1-yl)-2-(2,6-dioxopiperidin-3-yl)isoindoline-1,3-dione], the IC50 ([1]; read-out: IC50 (class symbol)) was < 100 nM and the IC50 [1, 2] was 25 nM.
In the case of `COc1cc(N2CCC(N3CCN(c4ccc5c(c4)C(=O)N(C4CCC(=O)NC4=O)C5=O)CC3)CC2)c(-c2cnn(C)c2)cc1Nc1ncc(Br)c(Nc2ccccc2P(C)(C)=O)n1` (stereo not drawn) [Compound 114, 5-(4-(1-(4-((5-bromo-4-((2-(dimethylphosphoryl)phenyl)amino)pyrimidin-2-yl)amino)-5-methoxy-2-(1-methyl-1H-pyrazol-4-yl)phenyl)piperidin-4-yl)piperazin-1-yl)-2-(2,6-dioxopiperidin-3-yl)isoindoline-1,3-dione], the IC50 ([1]; read-out: IC50 (class symbol)) is reported as < 100 nM and the IC50 [1, 2] is reported as 60 nM.
In the case of `COc1cc(N2CCC(N3CCN(CC4CCN(c5cc6c(cc5F)C(=O)N(C5CCC(=O)NC5=O)C6=O)CC4)CC3)CC2)c(-c2cnn(C)c2)cc1Nc1ncc(Cl)c(Nc2ccc3nccnc3c2P(C)(C)=O)n1` (stereo not drawn) [Compound 5, 5-(4-((4-(1-(4-((5-chloro-4-((5-(dimethylphosphoryl)quinoxalin-6-yl)amino)pyrimidin-2-yl)amino)-5-methoxy-2-(1-methyl-1H-pyrazol-4-yl)phenyl)piperidin-4-yl)piperazin-1-yl)methyl)piperidin-1-yl)-2-(2,6-dioxopiperidin-3-yl)-6-fluoroisoindoline-1,3-dione], the IC50 ([1]; read-out: IC50 (class symbol)) is reported as < 100 nM and the IC50 [1, 2] is reported as 52 nM.
For `COc1cc(N2CCN(CC3CCN(c4ccc(C(=O)NC5CCC(=O)NC5=O)nc4)CC3)CC2)c(-c2cnn(C)c2)cc1Nc1ncc(Cl)c(Nc2ccc(-c3ccccc3)cc2P(C)(C)=O)n1` (stereo not drawn) [Compound 124, 5-(4-((4-(4-((5-chloro-4-((3-(dimethylphosphoryl)-[1,1′-biphenyl]-4-yl)amino)pyrimidin-2-yl)amino)-5-methoxy-2-(1-methyl-1H-pyrazol-4-yl)phenyl)piperazin-1-yl)methyl)piperidin-1-yl)-N-(2,6-dioxopiperidin-3-yl)picolinamide], the IC50 ([1]; read-out: IC50 (class symbol)) was < 100 nM and the IC50 [1, 2] was 71 nM.
With `COc1cc(N2CCC(CN3CCC4(CC3)CCN(c3ccc(C(=O)NC5CCC(=O)NC5=O)nc3)CC4)CC2)c(-c2cnn(C)c2)cc1Nc1ncc(Cl)c(Nc2ccc(-c3ccccc3)cc2P(C)(C)=O)n1` (stereo not drawn) [Compound 70, 5-(9-((1-(4-((5-chloro-4-((3-(dimethylphosphoryl)-[1,1′-biphenyl]-4-yl)amino)pyrimidin-2-yl)amino)-5-methoxy-2-(1-methyl-1H-pyrazol-4-yl)phenyl)piperidin-4-yl)methyl)-3,9-diazaspiro[5.5]undecan-3-yl)-N-(2,6-dioxopiperidin-3-yl)picolinamide] the IC50 ([1]; read-out: IC50 (class symbol)) was < 100 nM and the IC50 [1, 2] was 39 nM.
In the case of `COc1cc(N2CCN(C3CCN(CC4CCN(c5ccc6c(c5)C(=O)N(C5CCC(=O)NC5=O)C6=O)CC4)CC3)CC2)c(-c2cnn(C)c2)cc1Nc1ncc(Br)c(Nc2ccc3nccnc3c2P(C)(C)=O)n1` (stereo not drawn) [Compound 31, 5-(4-((4-(4-(4-((5-bromo-4-((5-(dimethylphosphoryl)quinoxalin-6-yl)amino)pyrimidin-2-yl)amino)-5-methoxy-2-(1-methyl-1H-pyrazol-4-yl)phenyl)piperazin-1-yl)piperidin-1-yl)methyl)piperidin-1-yl)-2-(2,6-dioxopiperidin-3-yl)isoindoline-1,3-dione], the IC50 ([1]; read-out: IC50 (class symbol)) is reported as < 100 nM and the IC50 [1, 2] is reported as 15 nM.
`COc1cc(N2CCN(C3CN(c4ccc5c(c4)C(=O)N(C4CCC(=O)NC4=O)C5=O)C3)CC2)c(-c2cnn(C)c2)cc1Nc1ncc(Br)c(Nc2ccccc2P(C)(C)=O)n1` (stereo not drawn) [Compound 151, 5-(3-(4-(4-((5-bromo-4-((2-(dimethylphosphoryl)phenyl)amino)pyrimidin-2-yl)amino)-5-methoxy-2-(1-methyl-1H-pyrazol-4-yl)phenyl)piperazin-1-yl)azetidin-1-yl)-2-(2,6-dioxopiperidin-3-yl)isoindoline-1,3-dione] was tested, and the IC50 ([1]; read-out: IC50 (class symbol)) was < 100 nM and the IC50 [1, 2] was 35 nM.
For `COc1cc(N2CCC(CN3CCN(c4ccc(C5CCC(=O)NC5=O)c(F)c4)CC3)CC2)c(-c2cnn(C)c2)cc1Nc1ncc(Cl)c(Nc2ccccc2P(C)(C)=O)n1` (stereo not drawn) [Compound 154, 3-(4-(4-((1-(4-((5-chloro-4-((2-(dimethylphosphoryl)phenyl)amino)pyrimidin-2-yl)amino)-5-methoxy-2-(1-methyl-1H-pyrazol-4-yl)phenyl)piperidin-4-yl)methyl)piperazin-1-yl)-2-fluorophenyl)piperidine-2,6-dione], the IC50 ([1]; read-out: IC50 (class symbol)) was < 100 nM and the IC50 [1, 2] was 46 nM.
With `COc1cc(N2CCC3(CC2)CN(CC2CCN(c4cc5c(cc4F)C(=O)N(C4CCC(=O)NC4=O)C5=O)CC2)C3)c(-c2cnn(C)c2)cc1Nc1ncc(Cl)c(Nc2ccc(-c3ccccc3)cc2P(C)(C)=O)n1` (stereo not drawn) [Compound 94, 5-(4-((7-(4-((5-chloro-4-((3-(dimethylphosphoryl)-[1,1′-biphenyl]-4-yl)amino)pyrimidin-2-yl)amino)-5-methoxy-2-(1-methyl-1H-pyrazol-4-yl)phenyl)-2,7-diazaspiro[3.5]nonan-2-yl)methyl)piperidin-1-yl)-2-(2,6-dioxopiperidin-3-yl)-6-fluoroisoindoline-1,3-dione] the IC50 ([1]; read-out: IC50 (class symbol)) was < 100 nM and the IC50 [1, 2] was 77 nM.
In the case of `COc1cc(N2CCC3(CCN(CC4CCN(c5cc6c(cc5F)C(=O)N(C5CCC(=O)NC5=O)C6=O)CC4)CC3)CC2)c(-c2cnn(C)c2)cc1Nc1ncc(Br)c(Nc2ccc3nccnc3c2P(C)(C)=O)n1` (stereo not drawn) [Compound 21, 5-(4-((9-(4-((5-bromo-4-((5-(dimethylphosphoryl)quinoxalin-6-yl)amino)pyrimidin-2-yl)amino)-5-methoxy-2-(1-methyl-1H-pyrazol-4-yl)phenyl)-3,9-diazaspiro[5.5]undecan-3-yl)methyl)piperidin-1-yl)-2-(2,6-dioxopiperidin-3-yl)-6-fluoroisoindoline-1,3-dione], the IC50 ([1]; read-out: IC50 (class symbol)) is reported as < 100 nM and the IC50 [1, 2] is reported as 39 nM.
In the case of `COc1cc(N2CCC(CN3CCN(c4ccc(C5CCC(=O)NC5=O)cc4)CC3)CC2)c(-c2cnn(C)c2)cc1Nc1ncc(Cl)c(Nc2ccc(C3CC3)cc2P(C)(C)=O)n1` (stereo not drawn) [Compound 152, 3-(4-(4-((1-(4-((5-chloro-4-((4-cyclopropyl-2-(dimethylphosphoryl)phenyl)amino)pyrimidin-2-yl)amino)-5-methoxy-2-(1-methyl-1H-pyrazol-4-yl)phenyl)piperidin-4-yl)methyl)piperazin-1-yl)phenyl)piperidine-2,6-dione], the IC50 ([1]; read-out: IC50 (class symbol)) is reported as < 100 nM and the IC50 [1, 2] is reported as 68 nM.
An IC50 ([1]; read-out: IC50 (class symbol)) of 100 to 500 nM and an IC50 [1, 2] of 118 nM were found for `COc1cc(N2CCC3(CCN(Cc4cccc(NC5CCC(=O)NC5=O)c4)CC3)CC2)c(-c2cnn(C)c2)cc1Nc1ncc(Cl)c(Nc2ccc(-c3ccccc3)cc2P(C)(C)=O)n1` (stereo not drawn) [Compound 130, 3-((3-((9-(4-((5-chloro-4-((3-(dimethylphosphoryl)-[1,1′-biphenyl]-4-yl)amino)pyrimidin-2-yl)amino)-5-methoxy-2-(1-methyl-1H-pyrazol-4-yl)phenyl)-3,9-diazaspiro[5.5]undecan-3-yl)methyl)phenyl)amino)piperidine-2,6-dione] in this work.
